# Source: patent publication US20160287534A1, “METHODS FOR REVERSING FIBROSIS” (The University of Connecticut, priority 2015, published 2016)
# Experiments:
# Assay type in all cases: cell-based
# LX-2 cells = assay: qRT-PCR of fibrogenic genes in LX-2 cells (Example 2)
# Protocol: (§1) Mouse primary HSCs were isolated from C57BL/6J, nuclear erythroid 2-related factor 2 (NRF2) knockout (Nrf2−/−), and wild-type mice using a pronase/collagenase digestion method as described herein Example 1. The cells were then cultured on untreated petri dishes (BD Falcon, Franklin Lakes, N.J.), and maintained in a low-glucose DMEM medium supplemented with 10% FBS, 4 mM L-glutamine, and P/S (100 U/100 μg per mL). Human primary HSCs (Zen-Bio, Research Triangle Park, N.C.) were maintained in a low-glucose DMEM medium containing 2% FBS, 4 mM L-glutamine, 1× nonessential amino acids, 1× vitamins, and P/S (100 U/100 μg per mL). The cells were seeded on a collagen-coated plate for experiments (Sarstedt, Newton, N.C.). LX-2 cells, kindly provided by Dr. Scott Friedman at the Icahn School of Medicine at Mount Sinai (New York, N.Y.), were maintained in a low-glucose DMEM supplemented with 2% FBS, 4 mM L-glutamine, and P/S (100 U/100 μg per mL). All cells were cultured in a 37° C. humidified cell culture chamber with 5% CO2. Cell culture supplies were purchased from HyClone unless stated otherwise (Thermo Scientific, Logan, Utah).
# Total RNA extraction, cDNA synthesis, and qRT-PCR were conducted using a Bio-Rad CFX96 Real-Time system (Bio-Rad, Hercules, Calif.) as previously described (Id.). Primer sequences will be available upon request. […]
# [1] = system: HDAC9 and myocyte enhancer factor 2 (MEF2); assay: HDAC and MEF2 mRNA and protein expression in mouse primary HSCs
# Protocol: ASTX, provided by Fuji Chemical Industry Co., Ltd. (Toyama, Japan), was prepared in DMSO as described herein in Example 1. After plated on an uncoated dish, mouse qHSCs were incubated with 25 μM ASTX during activation. aHSCs, which were prepared by culturing qHSCs on an uncoated dish for 6 d, were incubated with 25 μM ASTX for 2 or 4 more days. Also, cells were incubated with 3 μM tert-butyl hydrogen peroxide (tBHP, Thermo Scientific) for 12 h with or without 25 μM ASTX. Medium containing ASTX was replenished daily and DMSO vehicle control was always run in parallel. Human primary HSC were treated with 25 μM ASTX for 24 h, after which they were activated by 3 ng/mL of TGFβ1 (Peprotech, Rocky Hill, N.J.) for 24 h.
# Total RNA extraction, cDNA synthesis, and qRT-PCR were conducted using a Bio-Rad CFX96 Real-Time system (Bio-Rad, Hercules, Calif.) as previously described (Id.). Primer sequences will be available upon request.
# Whole cell lysates and human tissue protein extracts were prepared and Western blot analysis were performed as described (Id.) using antibodies against α-SMA (Sigma, St. Louis, Mo.), HDAC3 (Santa Cruz Biotechnology, Santa Cruz, Calif.), HDAC4 (Santa Cruz Biotechnology), HDAC9 (Abcam, Cambridge, Mass.; Novus Biologicals, Littleton, Colo.), Col1A1 (Sigma). β-tubulin (Santa Cruz) or glyceraldehyde 3-phosphate dehydrogenase (GAPDH) (Santa Cruz) was used as a loading control.
# human primary HSCs = assay: qRT-PCR of fibrogenic genes in human primary HSCs
# Protocol: as §1
# ASTX, provided by Fuji Chemical Industry Co., Ltd. (Toyama, Japan), was prepared in DMSO as described herein in Example 1. […]
# Smad3 = assay: Western blot of Smad3 phosphorylation and nuclear translocation in LX-2 cells
# Protocol: Whole cell lysates were prepared to conduct Western blot as we previously described (Id.) using antibodies against α-SMA (Sigma, St. Louis, Mo.), Smad3 (Millipore, Billerica, Mass.), and phospho-Smad3 (Cell Signaling, Danvers, Mass.). β-Tubulin (Santa Cruz Biotechnology, Santa Cruz, Calif.) or β-actin (Sigma, St. Louis, Mo.) was used as a loading control. For Western blot of nuclear and cytoplasmic cell fractions, the fractions were prepared using a nuclear extraction kit (Cayman, Ann Arbor, Mich.) as previously described (see Ku et al. Biochim. Biophys. Acta Gen. Subj. 2013, vol. 1830, pp. 2981-2988). Glyceraldehyde 3-phosphate dehydrogenase (GAPDH) (Santa Cruz Biotechnology, Santa Cruz, Calif.) and lamin B (Santa Cruz Biotechnology) were used as a loading control for cytoplasmic and nuclear fractions, respectively. Blots were developed using Westpico horseradish peroxidase chemiluminescence (Pierce, Rockford, Ill.) and images were analyzed using a Chemidoc XRS+system (Bio-Rad) and Image Lab software (Bio-Rad).
# [2] = ASTX added at day 4 for 2 d during HSC activation (FIG. 10D)
structure (smiles),measurement,setting,value
"CC1=C(/C=C/C(C)=C/C=C/C(C)=C/C=C/C=C(C)/C=C/C=C(C)/C=C/C2=C(C)C(=O)C(O)CC2(C)C)C(C)(C)CC(O)C1=O (stereo not shown) [ASTX, astaxanthin]",basal levels of α-SMA and Col1A1 expression,LX-2 cells; LX-2 cells pretreated with ASTX 12 h (FIG. 13A),repressed
same,α-SMA and Col1A1 expression induced by TGFβ1,"LX-2 cells; LX-2 cells, ASTX 12 h, then 3 ng/mL TGFβ1 12 h (FIG. 13A)",attenuated
same,HDAC2 protein level,[1]; [2],minimally altered
same,decrease of HDAC3 and 4 protein levels,[1]; [2],~50%
same,decrease of HDAC9 protein level,[1]; [2],~70%
same,mRNA levels of HDAC9,[1]; aHSCs incubated with ASTX for 2 d (FIG. 10F),significantly repressed
same,mRNA levels of MEF2 isoforms,[1]; aHSCs incubated with ASTX for 2 d (FIG. 10G),significantly repressed
same,"induction of MEF2a, 2c and 2d mRNA","[1]; during HSC activation, ASTX for 2 d from day 4 (FIG. 10E)",significantly attenuated
same,HDAC9 mRNA induction,[1]; during activation of qHSCs (FIG. 10B),significantly decreased
same,TGFβ1-mediated induction of α-SMA and Col1A1 mRNA,"human primary HSCs; 25 μM ASTX 24 h, then TGFβ1 3 ng/ml 24 h (FIGS. 11A, 11B)",attenuated
same,basal levels of α-SMA and Col1A1 mRNA,"human primary HSCs; 25 μM ASTX (FIGS. 11A, 11B)",attenuated
same,TGFβ1-induced phosphorylation of Smad3,Smad3; 25 μM ASTX (FIG. 5A),significantly inhibited
same,nuclear translocation of Smad3,Smad3; 25 μM ASTX (FIG. 5B),reduced
